Earlier results on one molecule are cited in paper PMC10851415 (Biochemistry, 2024).

The subject of the series is influenza. The conditions noted are these: in vivo, po; cited from earlier work.

On to `COC(=O)OCOc1c2n(ccc1=O)N([C@@H]1c3ccccc3SCc3c1ccc(F)c3F)[C@@H]1COCCN1C2=O` [BXM, Baloxavir marboxil], for which the “reduce fever in an average of” value was 24 h.
